{"source": "patent US20060062758A1", "about": "“Tight junction modulator peptide PN159 for enhanced mucosal delivery of therapeutic compounds” (Nastech Pharmaceutical Comapny Inc., priority 2004, published 2006)", "key": {"[1]": {"test_system": "EpiAirway™ Cell Membrane (mucosal epithelial cell layer)", "assay": "Transepithelial electrical resistance (TER), EpiAirway in vitro epithelial tissue model", "assay_type": "cell-based", "conditions": "for TER(x)/TER(159) +/− SEM*: mean values from multiple repeats", "from_the_text": "One “kit” consists of 24 units.\nA. Respiratory airway epithelial cells form tight junctions in vivo as well as in vitro, and thereby restrict the flow of solutes across the tissue. These junctions confer a transepithelial resistance of several hundred ohms×cm^2 in excised airway tissues. In the MatTek EpiAirway™ units, the transepithelial electrical resistance (TER) is reported by the manufacturer to be routinely around 1000 ohms×cm^2. […] The porous membrane-bottomed units without cells, conversely, provide only minimal transmembrane resistance (approximately 5-20 ohms×cm^2).\nB. Accurate determinations of TER require that the electrodes of the ohmmeter be positioned over a significant surface area above and below the membrane, and that the distance of the electrodes from the membrane be reproducibly controlled. The method for TER determination recommended by MatTek and employed for all experiments herein employs an “EVOM”™ epithelial voltohmmeter and an “ENDOHM”™ tissue resistance measurement chamber from World Precision Instruments, Inc., Sarasota, Fla.\nD. Determinations of TER are made with 1.5 mL of PBS in the chamber and 350 μL of PBS in the membrane-bottomed unit being measured. The top electrode is adjusted to a position just above the membrane of a unit containing no cells (but containing 350 μL of PBS) and then fixed to ensure reproducible positioning. The resistance of a cell-free unit is typically 5-20 ohms×cm^2 (“background resistance”).\nG. The unit is gently blotted free of excess PBS on its exterior surface only before being placed into the chamber (containing a fresh 1.5 mL aliquot of PBS). An aliquot of 350 μL PBS is added to the unit before the top electrode is placed on the chamber and the TER is read on the EVOM meter.\nI. The units are read in the following sequence: all sham-treated controls, followed by all formulation-treated samples, followed by a second TER reading of each of the sham-treated controls. All TER values are reported as a function of the surface area of the tissue.\nTER was calculated as: TER=(R1−Rb)×A Where R1 is resistance of the insert with a membrane, Rb is the resistance of the blank insert, and A is the area of the membrane (0.6 cm^2). The effect of pharmaceutical formulations comprising intranasal delivery-enhancing agents, for example, permeabilizing peptides as measured by TER across the EpiAirway™ Cell Membrane (mucosal epithelial cell layer). Permeabilizing peptides are applied to the EpiAirway™ Cell Membrane at a concentration of 1.0 mM. A decrease in TER value relative to the control value (control=approximately 1000 ohms-cm^2; normalized to 100.) indicates a decrease in cell membrane resistance and an increase in mucosal epithelial cell permeability.\nThe formulation pH was fixed at 4.5."}, "[2]": {"test_system": "EpiAirway™ Cell Membrane (mucosal epithelial cell layer)", "assay": "Permeation kinetics across the in vitro epithelial tissue model", "conditions": "for Perm(x)/Perm(159) +/− SEM*: mean values from multiple repeats; for PTH1-34 permeation: 2 mg/ml PTH, pH 4.5", "procedure": "The EpiAirway™ system was developed by MatTek Corp (Ashland, Mass.) as a model of the pseudostratified epithelium lining the respiratory tract. The epithelial cells are grown on porous membrane-bottomed cell culture inserts at an air-liquid interface, which results in differentiation of the cells to a highly polarized morphology. The apical surface is ciliated with a microvillous ultrastructure and the epithelium produces mucus (the presence of mucin has been confirmed by immunoblotting). The inserts have a diameter of 0.875 cm, providing a surface area of 0.6 cm^2. The cells are plated onto the inserts at the factory approximately three weeks before shipping. One “kit” consists of 24 units.\nA. A “kit” of 24 EpiAirway™ units can routinely be employed for evaluating five different formulations, each of which is applied to quadruplicate wells. Each well is employed for determination of permeation kinetics (4 time points), transepithelial electrical resistance (TER). An additional set of wells is employed as controls, which are sham treated during determination of permeation kinetics, but are otherwise handled identically to the test sample-containing units for determinations of transepithelial resistance and viability.\nB. In all experiments, the mucosal delivery formulation to be studied is applied to the apical surface of each unit in a volume of 100 μL, which is sufficient to cover the entire apical surface. An appropriate volume of the test formulation at the concentration applied to the apical surface (no more than 100 μL is generally needed) is set aside for subsequent determination of concentration of the active material by ELISA or other designated assay.\nD. In order to minimize potential sources of error and avoid any formation of concentration gradients, the units are transferred from one 0.9 mL-containing well to another at each time point in the study. These transfers are made at the following time points, based on a zero time at which the 100 μL volume of test material was applied to the apical surface: 15 minutes, 30 minutes, 60 minutes, and 120 minutes.\nF. At the completion of each time point, the medium is removed from the well from which each unit was transferred, and aliquotted into two tubes (one tube receives 700 μL and the other 200 μL) for determination of the concentration of permeated test material and, in the event that the test material is cytotoxic, for release of the cytosolic enzyme, lactate dehydrogenase, from the epithelium. These samples are kept in the refrigerator if the assays are to be conducted within 24 hours, or the samples are subaliquotted and kept frozen at −80° C. until thawed once for assays. Repeated freeze-thaw cycles are to be avoided.\nEIA kit (p/n S-1178(EIAH6101) was purchased from Peninsula Laboratories Inc. (Division of BACHEM, San Carlos, Calif., 800-922-1516). 17×120 mm polypropylene conical tubes (p/n 352097, Falcon, Franklin Lakes, N.J.) were used for all sample preparations. Eight standards were used for PTH quantitation. The rest of the assay procedure was the same as the kit inserts.\nThe instant study was designed to evaluate the effect of PN159 itself or in combination with additional permeation enhancers on PTH permeation. The PN159 concentrations evaluated are 25, 50, and 100 μM. The additional permeation enhancers are 45 mg/ml M-β-CD, 1 mg/ml DDPC, and 1 mg/ml EDTA. Sorbitol was used as a tonicifier (146-190 mM) to adjust the osmolarity of formulations to 220 mOsm/kg. The formulation pH was fixed at 4.5. PTH was chosen as a model peptide in this example. 2 mg/ml PTH was combined with PN159 with or without additional permeation enhancers. The combination was tested using an in vitro epithelial tissue model to monitor PTH permeation, transepithelial electrical resistance (TER), and the cytotoxicity of the formulation by LDH assay.\nThe effect of PN159 on permeation of MC-4RA was evaluated in this study."}, "[3]": {"conditions": "Example 7, length changes, relative to PN159"}, "[4]": {"conditions": "Table 6, D-amino acid substitutions, relative to PN159"}, "[5]": {"conditions": "Table 9, hydrophobic faces, relative to PN159"}}}
{"smiles": "CC(C)C[C@H](NC(=O)[C@H](C)NC(=O)[C@H](CCCCN)NC(=O)[C@H](CC(C)C)NC(=O)[C@H](C)NC(=O)[C@H](CC(C)C)NC(=O)[C@H](CCCCN)NC(=O)[C@H](CC(C)C)NC(=O)[C@H](C)NC(=O)[C@H](CC(C)C)NC(=O)[C@@H](N)CCCCN)C(=O)N[C@@H](CCCCN)C(=O)N[C@@H](C)C(=O)N[C@@H](C)C(=O)N[C@@H](CC(C)C)C(=O)N[C@@H](CCCCN)C(=O)N[C@@H](CC(C)C)C(=O)N[C@@H](C)C(N)=O", "note": "[PN159]", "values": [{"measurement": "TER reduction (in words)", "setting": "[1]; Example 2, PTH formulation study, applied to apical side", "result": "Higher TER reduction was observed with increasing PN159 concentration"}, {"measurement": "TER(x)/TER(159) +/− SEM*", "setting": "[1]; [3]", "result": "1.00 +/− 0.14"}, {"measurement": "TER(x)/TER(159) +/− SEM", "setting": "[1]; [4]", "result": "1.00 +/− 0.14"}, {"measurement": "Relative TER Decrease", "setting": "[1]; Table 8, amino acid substitutions, relative to PN159", "result": 1.0}, {"measurement": "TER(x)/TER(159) +/− SEM*", "setting": "[1]; [5]", "result": "1.00 +/− 0.14"}, {"measurement": "Perm(x)/Perm(159) +/− SEM*", "setting": "[2]; [3]", "result": 1.00}, {"measurement": "permeation of MC-4RA", "setting": "[2]; PN159 5, 25, 50, 100 μM, 10 mg/ml MC-4RA, 45 mg/ml M-β-CD, pH 4", "result": "significantly enhance epithelial permeation"}, {"measurement": "PTH1-34 permeation", "setting": "[2]; PN159 25, 50, 100 μM without additional enhancers", "result": "Significant increase in PTH permeation"}, {"measurement": "PTH1-34 permeation", "setting": "[2]; PN159 combined with 45/1/1 mg/ml M-b-CD/DDPC/EDTA", "result": "Additional increase in PTH permeation"}, {"measurement": "Perm(x)/Perm(159) +/− SEM", "setting": "[2]; [4]", "result": "1.00 +/− 0.13"}, {"measurement": "Perm(x)/Perm(159) +/− SEM*", "setting": "[2]; [5]", "result": "1.00 +/− 0.13"}]}
